In data set [1] the target is T1, carnosinase-1 (recombinant Human CN-1) (Homo sapiens, UniProt Q96KN2).
T1 construct: purchased Novoprotein Company, Suzhou, China
T1 sequence (Q96KN2 26-507): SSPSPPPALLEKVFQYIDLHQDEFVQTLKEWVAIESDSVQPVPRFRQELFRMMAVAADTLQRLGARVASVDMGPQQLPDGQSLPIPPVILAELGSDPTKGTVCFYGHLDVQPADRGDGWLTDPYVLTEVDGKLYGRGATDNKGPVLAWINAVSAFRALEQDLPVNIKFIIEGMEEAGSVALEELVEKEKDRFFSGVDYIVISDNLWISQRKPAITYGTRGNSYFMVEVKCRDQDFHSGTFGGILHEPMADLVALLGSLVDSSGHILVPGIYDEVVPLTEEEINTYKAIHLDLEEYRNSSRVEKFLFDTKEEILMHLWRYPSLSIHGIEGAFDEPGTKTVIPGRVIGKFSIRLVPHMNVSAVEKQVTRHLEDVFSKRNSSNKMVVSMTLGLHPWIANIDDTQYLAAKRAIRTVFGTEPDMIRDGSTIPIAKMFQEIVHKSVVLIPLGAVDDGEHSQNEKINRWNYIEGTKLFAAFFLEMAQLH
The data set is described as follows: Enzymatic hydrolysis by carnosinase-1 (histidine release, fluorometric assay). The data set is classed as biochemical. The conditions noted are these: for Fluorescence (proportional to histidine release) on incubation with recombinant CN-1: 1 mM substrate, Tris/HCl 50 mM pH 7.5, 30 °C, 5-80 min, Fig. 3; for Hydrolysis in human serum: as worded in the abstract: human serum. Here is the method:
The resistance of the PEG-car to the enzymatic hydrolysis by carnosinase-1 was assayed by a previously designed enzymatic activity test (Lenney et al. [1982]). Briefly, PEG, PEG-car and L-carnosine (1 mM) respectively were incubated in Tris/HCl buffer (50 mM, pH 7.5) at 30 °C with carnosinase-1 (recombinant Human CN-1, Novoprotein Company, Suzhou, China). Aliquots of each sample taken after 5, 10, 20, 30, 40, 60, 80 min, and the enzymatic reaction was stopped by addition of 50 µL of 1% trichloroacetic acid (TCA). After addition of 50 µL of 5 mg/mL o-pthaldialdehyde dissolved in 2 M NaOH and incubation for 30 min at 30 °C, the amount of liberated histidine was quantified by fluorometric assay conducted by a multifunctional enzyme marker reader.

Data set [2] can be described thus: Pharmacokinetics in serum of mice after single intravenous injection (LC-MS/MS). The data set is classed as in vivo, C57BL/6J mice. As to conditions: for half-life: 1000 mg/kg i.v. single injection, noncompartmental, naive pooled; for AUC: 0 to 240 min sampling. The method, then: (§1) Six- to eight-week-old male C57BL/6J (20–25 g) mice were purchased from Sino-British SIPPR/BK Lab Animal Ltd (Shanghai, China). After ad libitum feeding for one week, the mice were randomly divided into three groups: the control group (n = 3, saline treated), the PEG-car treated group (n = 3) and the L-carnosine treated group (n = 3). Hereof, each mouse was respectively injected intravenously (i.v.) with saline, PEG-car (1000 mg/kg) or L-carnosine (1000 mg/kg) through the tail vein. The mice were anaesthetized by the inhalation of isoflurane during the injection. Blood samples were collected in EDTA tubes by cardiac puncture at 0, 5, 15, 30, 60, 120, 240 min after the administration of PEG-car or L-carnosine. Sera were obtained by centrifugation of the blood sample at 6800 g for 6 min at 4 ℃. Right after sacrifice, the mice were perfused by phosphate-buffered saline to remove the remaining blood. The brains and kidneys were carefully isolated thereafter. The tissues were stored at − 80 ℃and the sera were stored at − 20 ℃ untill use.
(§2) PEG-car or L-carnosine levels in serum and tissues were determined by liquid chromatography tandem-mass spectrometry (LC-MS/MS). Warfarin (Sigma-Aldrich, St. Louis, MO, USA) was used as internal standard (IS). The entire procedure for sample and standard preparation was carried out on ice. An aliquot of 20 µL serum or homogenized 40 mg tissue were pipetted into centrifuge tube and then 400 µL methanol was added for protein precipitation. After spiking the IS (40 ng for serum and 4 ng for kidney), the samples were vortexed for 1 min and then centrifuged at 18,000 g for 7 min at 4 ℃. The supernatant was used for the assay. The calibration curves were prepared by spiking the known concentrations of PEG-car or L-carnosine into serum or tissue homogenates obtained from untreated mice.
(§3) The concentrations were measured by a UHPLC system (Shimadzu LC-40D XS, Japan) coupled with electrospray ionization (ESI) and triple quadrupole-ion trap mass spectrometry (AB SCIEX QTRAP® 6500+, Singapore). PEG-car was performed in ACQUITY UPLC BEH C18 column (2.1 mm×50 mm, 1.7 μm, Waters, USA) with a 0.6 mL/min flow rate of mobile phase using gradient elution of ultrapure water (2mM Ammonium acetate (Sinopharm Chemical Reagent Co., Ltd, Shanghai, China) containing 0.1% formic acid, eluent A) and acetonitrile (2mM Ammonium formate (Sinopharm Chemical Reagent Co., Ltd, Shanghai, China) containing 0.1% formic acid, eluent B). The solvent gradient was changed according to the following program: 0–0.01 min 10%B, 0.01–0.6 min 10-90%B, 0.6–1.2 min 90%B, 1.2–1.21 min 90%-10%B, 1.21–1.5 min 10%B. L-carnosine was performed in ACQUITY UPLC BEH Amide column (2.1 mm×50 mm, 1.7 μm, Waters, USA) with a 0.6 mL/min flow rate of mobile phase using gradient elution of ultrapure water (2mM Ammonium acetate containing 0.1% formic acid, eluent A) and acetonitrile (2mM Ammonium formate containing 0.1% formic acid, eluent B). The solvent gradient was as follows: 0–0.01 min 90%B, 0.01–0.6 min 90%-40%B, 0.6–1.2 min 40%B, 1.2–1.21 min 40-90%B, 1.21–1.5 min 90%B. The injection volume was 5 µL. The QTRAP® 6500 + was operated in positive mode, multiple reaction monitoring (MRM) in unit resolution for Q1 and Q3. For detection of PEG-car, three transitions were set with a Q1 mass of 776.4, and Q3 masses of 109.9 (Collision Energy (CE) 119), 126.8 (CE 51), 707.2 (CE 38). For L-carnosine, four transitions were set with a Q1 mass of 227.3, and Q3 masses of 83.1 (CE 53), 110.0(CE 31), 156.2(CE 21), 210.2(CE 16). Pharmacokinetic parameters were calculated by noncompartmental analysis using a sparse sampling and naïve pooled approach (Phoenix WinNonLin 7.0, Certara, Mountain View, CA, USA).

A short description of data set [3]: Pharmacokinetics in kidney of mice after single intravenous injection (LC-MS/MS). The data set is classed as in vivo, C57BL/6J mice. The conditions noted are these: for AUC: 0 to 240 min sampling; for half-life: 1000 mg/kg i.v. single injection, noncompartmental, naive pooled. The method, then: as §1, §2, §3
Where [4] appears, read: male, C57BL/6J, mouse, iv, read-out: Half-Life.
The mark [5] stands for this setting: male, C57BL/6J, mouse, iv, 1000 mg/kg i.v., at 5 min.

Marks after values point to notes of the source that are not given here.

Take `NCCC(=O)N[C@@H](Cc1cnc[nH]1)C(=O)O` [L-carnosine, reference compound]: in data set [1], the “Fluorescence (proportional to histidine release) on incubation with recombinant CN-1” value was “fluorescence increased with time”. Moreover, the “Hydrolysis in human serum” value in data set [1] is on record as “rapidly hydrolyzed”. The clearance in data set [2] (male, C57BL/6J, mouse, iv, 1000 mg/kg i.v.) amounted to 0.926 L/h/kg. In addition, the half-life is 1.03 h in data set [2] (setting [4]) and 1.75 h in data set [3] (setting [4]). Also, the exposure (AUC) in data set [2] (male, C57BL/6J, mouse, iv, 1000 mg/kg i.v., read-out: AUC (converted)) was 1080 µg·h/mL; in data set [3] (1000 mg/kg i.v.), 518,040^c ng/mg tissue·min. Also, the peak concentration (Cmax) was 2860 µg/mL in data set [2] (setting [5]) and 5.91e+06 ng/g in data set [3] (setting [5]). The Vd in data set [2] (male, C57BL/6J, mouse, iv, 1000 mg/kg i.v., read-out: Vss) is 0.606 L/kg. For the same molecule, the CL in data set [3] (1000 mg/kg i.v.) is given as 1.59^d g/min/kg. Moreover, the Vss in data set [3] (1000 mg/kg i.v.) was 208^e g/kg.
In the case of mPEG-carnosine, in data set [1], the “Fluorescence (proportional to histidine release) on incubation with recombinant CN-1” value was “approximately six times lower than that of the carnosine sample” and the “Hydrolysis in human serum” value is recorded as “highly resistant to hydrolysis”. For the same molecule, the “Inhibition of CN-1 activity” value in data set [1] (mixture of PEG-car with L-carnosine incubated with recombinant CN-1) was “the activity of CN-1 cannot be inhibited by PEG-car”. Besides, in data set [2] (1000 mg/kg i.v.), the CL was found to be 0.8904 L/h/kg, the Vss is listed as 294* mL/kg and the AUC is reported as 67,730 µg/mL·min. The half-life in data set [2] worked out at 0.533 h. In data set [2] (1000 mg/kg i.v., at 5 min), the “Cmax (5 min)” value was determined as 2671 µg/mL. Moreover, in data set [3] (1000 mg/kg i.v.), the CL is recorded as 3.47^d* g/min/kg, the Vss is reported as 830^e* g/kg and the AUC is reported as 173,340^c* ng/mg tissue·min. The half-life in data set [3] is listed as 168* min. For the same molecule, the “Cmax (5 min)” value in data set [3] (1000 mg/kg i.v., at 5 min) is given as 3899^b* ng/mg tissue.

(Values after publication PMC11222247, “PEGylation renders carnosine resistant to hydrolysis by serum carnosinase and increases renal carnosine levels” (Amino Acids, 2024).)
